Reference: patent US11427869B2, “T cell balance gene expression, compositions of matters and methods of use thereof” (THE BROAD INSTITUTE, INC., priority 2015, dated 2022)

Legend:
Assay type in all cases: cell-based, mouse
[1] = system: Th17 cells; test: Flow cytometry and intracellular cytokine staining of T cells
Experimental: WT, CD5L−/− and Rorγt−/− Th17 cells were differentiated with TGF-1+IL-6 for 96h. […] Three independent experiments were performed. […] (FIG. 18E) Naïve WT T cells were activated without polarizing cytokines (Th0) and infected with retrovirus expressing Rorγt in the presence of control-RV or CD5L-RV with or without FF-MAS (5 uM) as a source of Rorγt ligand. Each dot represents an independent infection. (FIG. 18F) WT or CD5L−/− naïve cells were differentiated with TGF-β1+IL-6. At 48h, cells were replated in fresh media with either control or FF-MAS (5 uM) as a source of Rorγt ligand. Cells were harvested for FACS analysis 72h later.
Flow cytometry and intracellular cytokine staining. Sorted naïve T cells were stimulated with phorbol 12-myristate 13-acetate (PMA) (50 ng/ml, Sigma-aldrich), ionomycin (1 μg/ml, Sigma-aldrich) and a protein transport inhibitor containing monensin (Golgistop) (BD Biosciences) for 4 h before detection by staining with antibodies.

[2] = system: Th17 cells; test: qPCR of gene expression (cyp51, sc4mol, pathogenicity signature) in Th17 cells with exogenous fatty acid
[3] = system: WT Th17 cells; test: Nanostring nCounter Th17 codeset (312 genes), SFA- or control-treated WT Th17 cells; settings: WT Th17 cells + SFA
Source text: Applicants studied the contribution of lipid saturation to Th17 cell pathogenicity. […] Applicants analyzed the expression of a 312 gene signature of Th17 cell differentiation and function (Yosef et al., 2013) in SFA- or control-treated WT Th17 cells and in PUFA- or control-treated CD5L−/− Th17 cells differentiated with TGF-81+IL-6.
T cell differentiation culture. Naïve CD4+CD44−CD62L+CD25− T cells or Effector memory CD4+CD44+CD62L− were sorted using BD FACSAria sorter and activated with plate-bound anti-CD3 and anti-CD28 antibodies (both at 2 μg/ml) in the presence of cytokines at a concentration of 2.5×10^5 cells/ml. For Th17 differentiation: 2 ng/ml of rhTGFβ1, 2 ng/ml of rhTGFβ3, 25 ng/ml rmIL-6, 20 ng/ml rmIL-18 (all from Miltenyi Biotec) and 20 ng/ml rmIL-23 (R & D systems) were used at various combinations as specified in figures. For Th1 differentiation, 20 ng/ml rmIL-12 (R & D systems); for Th2 differentiation 20 ng/ml rmIL-4 (Miltenyi Biotec); for iTreg differentiation, 2.5 ng/ml of rhTGFβ1 were used (Miltenyi Biotec). For differentiation experiments, cells were harvested at 48 hours. For restimulation experiments, cells were differentiated for 48 hours and resuspended in fresh media with no additional cytokines for 48-72 hours. Cells were re-stimulated with PMA/ionomycin for four hours before analysis for cytokines by intracellular cytokine staining. For experiments with exogenous fatty acid, fatty acids were purchased and resuspended first with serum-free media containing BSA prior being added to culture.
Nanostring nCounter. Nanostring nCounter platform (NanoString Technologies) is used to measure the number of RNA transcripts in RNA samples (FIG. 16I, FIG. 18D). A codeset containing 312 signature genes of Th17 cell differentiation and function as well as 4 additional house-keeping genes were custom-made (Yosef et al., 2013) and used in these experiments. Experimental procedures as detailed by the manufacturer is strictly followed.

[4] = Th17 cells differentiated with TGF-β1+IL-6

SMILES: CC(C)=CCC[C@@H](C)[C@H]1CC=C2C3=C(CC[C@@]21C)[C@@]1(C)CC[C@H](O)C(C)(C)[C@@H]1CC3 [Rorγt ligand, FF-MAS]
- IL-17 expression ([1]; Th0 cells with ectopic Rorγt expression and CD5L-RV, FF-MAS 5 uM): partially rescued
- IL-17 production ([1]; non-pathogenic Th17 cells (TGF-β1+IL-6), ligand (FF-MAS 5 uM) added at 48h, FACS 72h later): increased IL-17 production

SMILES: CCCCCCCCCCCCCCCC(=O)O [SFA, palmitic acid]
- expression of cyp51 and sc4mol mRNA ([2]; CD5L−/− Th17 cells (TGF-β1+IL-6), fatty acid 25 uM added at 48h, analyzed at 96h): modest effect
- Il22 expression (qPCR) [2, 4]: increased
- effector molecule expression of the pathogenicity signature (Il10, Il23r, Ccl5, Csf2, Lag3; qPCR) [2, 4]: reciprocally regulated
- IL-17 and IL-23R expression ([1]; WT Th17 cells differentiated with TGF-β1+IL-6 and expanded using IL-23 with fatty acid): only slightly increased
- ATF2 expression (Nanostring), normalized to WT [3]: 1.18
- Abcg2 expression (Nanostring), normalized to WT [3]: 0.77
- Acvr2a expression (Nanostring), normalized to WT [3]: 0.66
- Ahr expression (Nanostring), normalized to WT [3]: 0.83
- Arl5a expression (Nanostring), normalized to WT [3]: 0.93
- Atf4 expression (Nanostring), normalized to WT [3]: 1.11
- BC021614 expression (Nanostring), normalized to WT [3]: 0.96
- Bcl2l11 expression (Nanostring), normalized to WT [3]: 0.82
- Bcl3 expression (Nanostring), normalized to WT [3]: 0.85
- Bcl11b expression (Nanostring), normalized to WT [3]: 0.82
- Bhlhe40 expression (Nanostring), normalized to WT [3]: 1.22
- Casp3 expression (Nanostring), normalized to WT [3]: 1.21
- Casp4 expression (Nanostring), normalized to WT [3]: 0.95
- Ccl1 expression (Nanostring), normalized to WT [3]: 0.58
- Ccl20 expression (Nanostring), normalized to WT [3]: 0.31
- Ccr4 expression (Nanostring), normalized to WT [3]: 0.61
- Ccr8 expression (Nanostring), normalized to WT [3]: 0.74
- Cd9 expression (Nanostring), normalized to WT [3]: 0.84
- Cd70 expression (Nanostring), normalized to WT [3]: 0.89
- Cd83 expression (Nanostring), normalized to WT [3]: 1.23
- Cd86 expression (Nanostring), normalized to WT [3]: 0.99
- Cd247 expression (Nanostring), normalized to WT [3]: 0.81
- Clcf1 expression (Nanostring), normalized to WT [3]: 0.74
- Csf2 expression (Nanostring), normalized to WT [3]: 0.97
- Ctla4 expression (Nanostring), normalized to WT [3]: 0.81
- Cxcl10 expression (Nanostring), normalized to WT [3]: 3.83
- Cxcr3 expression (Nanostring), normalized to WT [3]: 0.48
- Cxcr4 expression (Nanostring), normalized to WT [3]: 1.00
- Cxcr5 expression (Nanostring), normalized to WT [3]: 1.17
- EBF1 expression (Nanostring), normalized to WT [3]: 0.51
- Egr2 expression (Nanostring), normalized to WT [3]: 1.53
- Elk3 expression (Nanostring), normalized to WT [3]: 0.58
- Ercc5 expression (Nanostring), normalized to WT [3]: 0.90
- Etv6 expression (Nanostring), normalized to WT [3]: 0.94
- Faim3 expression (Nanostring), normalized to WT [3]: 0.61
- Fli1 expression (Nanostring), normalized to WT [3]: 0.84
- Flna expression (Nanostring), normalized to WT [3]: 0.65
- Foxo1 expression (Nanostring), normalized to WT [3]: 0.79
- Foxp1 expression (Nanostring), normalized to WT [3]: 0.77
- Foxp3 expression (Nanostring), normalized to WT [3]: 0.71
- Frmd4b expression (Nanostring), normalized to WT [3]: 1.05
- Fxd7 expression (Nanostring), normalized to WT [3]: 1.07
- Gap43 expression (Nanostring), normalized to WT [3]: 1.30
- Gem expression (Nanostring), normalized to WT [3]: 1.00
- Gimap5 expression (Nanostring), normalized to WT [3]: 1.05
- Gja1 expression (Nanostring), normalized to WT [3]: 0.94
- Gmfg expression (Nanostring), normalized to WT [3]: 0.62
- Grn expression (Nanostring), normalized to WT [3]: 0.78
- Gusb expression (Nanostring), normalized to WT [3]: 1.02
- Hip1r expression (Nanostring), normalized to WT [3]: 0.70
- IL-33 expression (Nanostring), normalized to WT [3]: 1.33
- Ifih1 expression (Nanostring), normalized to WT [3]: 0.87
- Ifng expression (Nanostring), normalized to WT [3]: 0.55
- Ikzf3 expression (Nanostring), normalized to WT [3]: 0.82
- Il1r1 expression (Nanostring), normalized to WT [3]: 0.61
- Il2ra expression (Nanostring), normalized to WT [3]: 0.71
- Il3 expression (Nanostring), normalized to WT [3]: 2.11
- Il4ra expression (Nanostring), normalized to WT [3]: 0.75
- Il6st expression (Nanostring), normalized to WT [3]: 0.87
- Il7r expression (Nanostring), normalized to WT [3]: 0.85
- Il10 expression (Nanostring), normalized to WT [3]: 0.12
- Il10ra expression (Nanostring), normalized to WT [3]: 0.71
- Il12rb1 expression (Nanostring), normalized to WT [3]: 0.39
- Il12rb2 expression (Nanostring), normalized to WT [3]: 0.88
- Il17a expression (Nanostring), normalized to WT [3]: 0.96
- Il17f expression (Nanostring), normalized to WT [3]: 0.90
- Il21 expression (Nanostring), normalized to WT [3]: 1.64
- Il23r expression (Nanostring), normalized to WT [3]: 1.12
- Il27ra expression (Nanostring), normalized to WT [3]: 0.70
- Inhba expression (Nanostring), normalized to WT [3]: 0.60
- Irf4 expression (Nanostring), normalized to WT [3]: 0.68
- Irf7 expression (Nanostring), normalized to WT [3]: 0.54
- Irf8 expression (Nanostring), normalized to WT [3]: 0.99
- Itga3 expression (Nanostring), normalized to WT [3]: 0.50
- Jak3 expression (Nanostring), normalized to WT [3]: 0.91
- Jun expression (Nanostring), normalized to WT [3]: 1.11
- Kat2b expression (Nanostring), normalized to WT [3]: 0.69
- Klf9 expression (Nanostring), normalized to WT [3]: 0.68
- Klf10 expression (Nanostring), normalized to WT [3]: 0.91
- Klrd1 expression (Nanostring), normalized to WT [3]: 0.92
- Lad1 expression (Nanostring), normalized to WT [3]: 0.91
- Lgals3bp expression (Nanostring), normalized to WT [3]: 0.58
- Litaf expression (Nanostring), normalized to WT [3]: 1.48
- Lpxn expression (Nanostring), normalized to WT [3]: 0.85
- Maf expression (Nanostring), normalized to WT [3]: 0.79
- Maff expression (Nanostring), normalized to WT [3]: 0.99
- Map3k5 expression (Nanostring), normalized to WT [3]: 0.80
- Mbnl3 expression (Nanostring), normalized to WT [3]: 0.71
- Mina expression (Nanostring), normalized to WT [3]: 0.72
- Mt1 expression (Nanostring), normalized to WT [3]: 1.56
- Mt2 expression (Nanostring), normalized to WT [3]: 1.33
- Nfkbie expression (Nanostring), normalized to WT [3]: 0.69
- Nkg7 expression (Nanostring), normalized to WT [3]: 0.62
- Notch2 expression (Nanostring), normalized to WT [3]: 0.78
- Oas2 expression (Nanostring), normalized to WT [3]: 1.28
- Peli2 expression (Nanostring), normalized to WT [3]: 0.88
- Plac8 expression (Nanostring), normalized to WT [3]: 1.04
- Plagl1 expression (Nanostring), normalized to WT [3]: 2.19
- Pmepa1 expression (Nanostring), normalized to WT [3]: 0.74
- Pou2af1 expression (Nanostring), normalized to WT [3]: 1.30
- Prkd3 expression (Nanostring), normalized to WT [3]: 0.73
- Pstpip1 expression (Nanostring), normalized to WT [3]: 1.16
- Rab33a expression (Nanostring), normalized to WT [3]: 1.23
- Rasgrp1 expression (Nanostring), normalized to WT [3]: 0.75
- Rel expression (Nanostring), normalized to WT [3]: 1.20
- Rela expression (Nanostring), normalized to WT [3]: 0.70
- Rfk expression (Nanostring), normalized to WT [3]: 0.79
- Rorc expression (Nanostring), normalized to WT [3]: 1.25
- Sap30 expression (Nanostring), normalized to WT [3]: 1.23
- Sema7a expression (Nanostring), normalized to WT [3]: 1.44
- Serpinb1a expression (Nanostring), normalized to WT [3]: 0.56
- Ski expression (Nanostring), normalized to WT [3]: 0.88
- Slc6a6 expression (Nanostring), normalized to WT [3]: 0.79
- Smad3 expression (Nanostring), normalized to WT [3]: 0.81
- Socs3 expression (Nanostring), normalized to WT [3]: 0.78
- Spp1 expression (Nanostring), normalized to WT [3]: 1.10
- Spry1 expression (Nanostring), normalized to WT [3]: 1.57
- Stat4 expression (Nanostring), normalized to WT [3]: 0.77
- Stat5b expression (Nanostring), normalized to WT [3]: 0.82
- Stat6 expression (Nanostring), normalized to WT [3]: 0.73
- Sult2b1 expression (Nanostring), normalized to WT [3]: 0.38
- Tal2 expression (Nanostring), normalized to WT [3]: 1.15
- Tcf4 expression (Nanostring), normalized to WT [3]: 0.72
- Tgfb1 expression (Nanostring), normalized to WT [3]: 0.83
- Tgfb3 expression (Nanostring), normalized to WT [3]: 0.88
- Tgfbr3 expression (Nanostring), normalized to WT [3]: 0.58
- Tgm2 expression (Nanostring), normalized to WT [3]: 0.78
- Tmem229b expression (Nanostring), normalized to WT [3]: 0.69
- Tnfrsf4 expression (Nanostring), normalized to WT [3]: 1.28
- Tnip2 expression (Nanostring), normalized to WT [3]: 0.90
- Trat1 expression (Nanostring), normalized to WT [3]: 0.61
- Trim25 expression (Nanostring), normalized to WT [3]: 0.89
- Trps1 expression (Nanostring), normalized to WT [3]: 0.84
- Tsc22d3 expression (Nanostring), normalized to WT [3]: 1.06
- Ubiad1 expression (Nanostring), normalized to WT [3]: 0.94
- Vav3 expression (Nanostring), normalized to WT [3]: 0.56
- Xrcc5 expression (Nanostring), normalized to WT [3]: 0.93
- nrp1 expression (Nanostring), normalized to WT [3]: 0.74
- pou2f1 expression (Nanostring), normalized to WT [3]: 1.34
